Measured values published in PMC6207684, “Structural reorganization of SHP2 by oncogenic mutations and implications for oncoprotein resistance to allosteric inhibition” (Nature Communications, 2018).
Where a chain is given by its changes, count along the chain named. Where a SMILES comes first, the peptide text is derived from it. [ ]: non-standard residue; d: D form. pY = N[C@@H](Cc1ccc(OP(=O)(O)O)cc1)C(=O)O; PEG8 = NCCOCCOCCOCCOCCOCCOCCOCCOCCC(=O)O

Legend:
Assay in all cases: SHP2 phosphatase activity upon p-IRS-1 peptide stimulation (DiFMUP)
Type in all cases: biochemical
Settings in all cases: 200 μM DiFMUP, read-out: pIRS-1 AC50
SHP2^D61V = molecular target: T1, SHP2^D61V (Homo sapiens, UniProt Q06124, D61V)
T1 construct: made in house
T1 sequence (Q06124 1-593 D61V): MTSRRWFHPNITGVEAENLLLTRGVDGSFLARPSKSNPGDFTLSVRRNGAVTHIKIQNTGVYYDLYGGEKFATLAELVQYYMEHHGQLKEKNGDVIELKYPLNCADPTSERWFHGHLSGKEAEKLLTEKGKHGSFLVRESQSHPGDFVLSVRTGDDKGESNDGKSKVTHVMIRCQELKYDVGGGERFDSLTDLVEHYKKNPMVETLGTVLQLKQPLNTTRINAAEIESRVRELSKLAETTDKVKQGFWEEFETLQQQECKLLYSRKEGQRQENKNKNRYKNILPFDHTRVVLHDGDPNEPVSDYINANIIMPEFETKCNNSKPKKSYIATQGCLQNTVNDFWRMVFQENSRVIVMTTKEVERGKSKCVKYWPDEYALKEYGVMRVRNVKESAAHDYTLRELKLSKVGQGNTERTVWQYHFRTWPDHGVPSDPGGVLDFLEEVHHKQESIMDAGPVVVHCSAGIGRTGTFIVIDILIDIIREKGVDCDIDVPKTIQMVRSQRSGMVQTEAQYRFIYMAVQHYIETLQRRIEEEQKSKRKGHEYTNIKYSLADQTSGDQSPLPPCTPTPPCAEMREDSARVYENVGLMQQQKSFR
Experimental: (§1) Wild-type and mutant SHP2 proteins were diluted to 0.1 nM and treated with either varying concentrations of diphosphorylated IRS-1 peptide (pY1172-Peg-PY1222, SLNY(p)IDLDLVK-dPEG8-LSTY(p)ASINFQK), or for maximal activation, 10 μM pY1172-Peg-PY1222. Phosphatase activity was measured through the dephosphorylation DiFMUP (200 μM, ex. 385, em. 450 nm) on a Spectramax M5 plate reader and converted to product (DiFMU)/time by preparing a standard curve of DiFMU/DiFMUP. Velocity data were fit to the following three-parameter dose–response curve (Eq. (2)) to extrapolate EC50 values:2 V=Basal+Max-Basal∕1+10^LogEC50-S Where V represents enzyme velocity, Basal is basal response, Max is maximal response, [S] is substrate concentration, and EC50 is the substrate concentration that yields response half way between basal and maximal.

SHP2^F285S = molecular target: T2, SHP2^F285S (Homo sapiens, UniProt Q06124, F285S)
T2 construct: made in house
T2 sequence (Q06124 1-593 F285S): T1 sequence (Q06124 1-593 D61V) with V61D, F285S
Experimental: as §1

SHP2^G60V = molecular target: T3, SHP2^G60V (Homo sapiens, UniProt Q06124, G60V)
T3 construct: made in house
T3 sequence (Q06124 1-593 G60V): T1 sequence (Q06124 1-593 D61V) with G60V, V61D
Experimental: as §1

SHP2^S502P = molecular target: T4, SHP2^S502P (Homo sapiens, UniProt Q06124, S502P)
T4 construct: made in house
T4 sequence (Q06124 1-593 S502P): T1 sequence (Q06124 1-593 D61V) with V61D, S502P
Experimental: as §1

SHP2^WT = molecular target: T5, SHP2^WT (Homo sapiens, UniProt Q06124)
T5 construct: made in house
T5 sequence (Q06124 1-593): T1 sequence (Q06124 1-593 D61V) with V61D
Experimental: as §1

CC[C@H](C)[C@H](NC(=O)[C@H](CO)NC(=O)[C@H](C)NC(=O)[C@H](Cc1ccc(OP(=O)(O)O)cc1)NC(=O)[C@@H](NC(=O)[C@H](CO)NC(=O)[C@H](CC(C)C)NC(=O)CCOCCOCCOCCOCCOCCOCCOCCOCCNC(=O)[C@H](CCCCN)NC(=O)[C@@H](NC(=O)[C@H](CC(C)C)NC(=O)[C@H](CC(=O)O)NC(=O)[C@H](CC(C)C)NC(=O)[C@H](CC(=O)O)NC(=O)[C@@H](NC(=O)[C@H](Cc1ccc(OP(=O)(O)O)cc1)NC(=O)[C@H](CC(N)=O)NC(=O)[C@H](CC(C)C)NC(=O)[C@@H](N)CO)[C@@H](C)CC)C(C)C)[C@@H](C)O)C(=O)N[C@@H](CC(N)=O)C(=O)N[C@@H](Cc1ccccc1)C(=O)N[C@@H](CCC(N)=O)C(=O)N[C@@H](CCCCN)C(=O)O [pIRS-1, SLNY(p)IDLDLVK-dPEG8-LSTY(p)ASINFQK] (H-SLN[pY]IDLDLVK[PEG8]LST[pY]ASINFQK-OH)
AC50 (SHP2^D61V): 4 ± 1 nM
AC50 (SHP2^F285S): 18 ± 2 nM
AC50 (SHP2^G60V): 9 ± 2 nM
AC50 (SHP2^S502P): 5 ± 2 nM
AC50 (SHP2^WT): 247 ± 18 nM
